From PMC8900464 (Journal of medicinal chemistry, 2022)

How the values were obtained:
total AKT (T-AKT) = assay: Immunoblotting of total AKT in BT474 cells; format: cell-based; conditions: 24 h, western blot; for AKT (T-AKT) degradation: BT474 cells, 1, 5 and 10 μM
[1] = tested on: P-AKT (S473), P-PRAS40 (T246), P-S6 (S240/244); assay: Immunoblotting of P-AKT and downstream signaling in BT474 cells; format: cell-based; conditions: 24 h
[2] = BT474 cells, 5 μM, western blot
[3] = BT474 cells, 1, 5 and 10 μM, P-PRAS40 and P-S6, western blot

| Compound | AKT (T-AKT) degradation (total AKT (T-AKT)) | further results |
| --- | --- | --- |
| NC1(C(=O)N[C@@H](CCN2CCN(C(=O)CCCCCCNc3cccc4c3C(=O)N(C3CCC(=O)NC3=O)C4=O)CC2)c2ccc(Cl)cc2)CCN(c2ncnc3[nH]ccc23)CC1 (stereo partly drawn) [Compound 29, 4-Amino-N-((1S)-1-(4-chlorophenyl)-3-(4-(7-((2-(2,6-dioxopiperidin-3-yl)-1,3-dioxoisoindolin-4-yl)amino)heptanoyl)piperazin-1-yl)propyl)-1-(7H-pyrrolo[2,3-d]pyrimidin-4-yl)piperidine-4-carboxamide] | negligible AKT degradation | – |
| NC1(C(=O)N[C@@H](CCN2CCN(C(=O)CNc3cccc4c3C(=O)N(C3CCC(=O)NC3=O)C4=O)CC2)c2ccc(Cl)cc2)CCN(c2ncnc3[nH]ccc23)CC1 (stereo partly drawn) [Compound 24, 4-Amino-N-((1S)-1-(4-chlorophenyl)-3-(4-((2-(2,6-dioxopiperidin-3-yl)-1,3-dioxoisoindolin-4-yl)glycyl)piperazin-1-yl)propyl)-1-(7H-pyrrolo[2,3-d]pyrimidin-4-yl)piperidine-4-carboxamide] | negligible AKT degradation | – |
| Cc1ncsc1-c1ccc(CNC(=O)[C@@H]2C[C@@H](O)CN2C(=O)[C@@H](NC(=O)CCCCC(=O)N2CCN(CC[C@H](NC(=O)C3(N)CCN(c4ncnc5[nH]ccc45)CC3)c3ccc(Cl)cc3)CC2)C(C)(C)C)cc1 [Compound 14, 4-Amino-N-((S)-1-(4-chlorophenyl)-3-(4-(6-(((S)-1-((2S,4R)-4-hydroxy-2-((4-(4-methylthiazol-5-yl)benzyl)carbamoyl)pyrrolidin-1-yl)-3,3-dimethyl-1-oxobutan-2-yl)amino)-6-oxohexanoyl)-piperazin-1-yl)propyl)-1-(7H-pyrrolo[2,3-d]pyrimidin-4-yl)-piperidine-4-carboxamide] | – | AKT degradation (total AKT (T-AKT); BT474 cells, 5 μM): improved AKT degradation; downstream signaling inhibition [1, 2]: significant downstream signaling inhibition |
| Cc1ncsc1-c1ccc(CNC(=O)[C@@H]2C[C@@H](O)CN2C(=O)[C@@H](NC(=O)CCCC(=O)N2CCN(CC[C@H](NC(=O)C3(N)CCN(c4ncnc5[nH]ccc45)CC3)c3ccc(Cl)cc3)CC2)C(C)(C)C)cc1 [Compound 13, 4-Amino-N-((S)-1-(4-chlorophenyl)-3-(4-(5-(((S)-1-((2S,4R)-4-hydroxy-2-((4-(4-methylthiazol-5-yl)benzyl)carbamoyl)pyrrolidin-1-yl)-3,3-dimethyl-1-oxobutan-2-yl)amino)-5-oxopentanoyl)-piperazin-1-yl)propyl)-1-(7H-pyrrolo[2,3-d]pyrimidin-4-yl)-piperidine-4-carboxamide] | inactive at reducing the T-AKT protein level | – |
| NC1(C(=O)N[C@@H](CCN2CCN(C(=O)CCCCCNc3cccc4c3C(=O)N(C3CCC(=O)NC3=O)C4=O)CC2)c2ccc(Cl)cc2)CCN(c2ncnc3[nH]ccc23)CC1 (stereo partly drawn) [Compound 28, 4-Amino-N-((1S)-1-(4-chlorophenyl)-3-(4-(6-((2-(2,6-dioxopiperidin-3-yl)-1,3-dioxoisoindolin-4-yl)amino)hexanoyl)piperazin-1-yl)-propyl)-1-(7H-pyrrolo[2,3-d]pyrimidin-4-yl)piperidine-4-carboxamide] | moderate effectiveness | downstream signaling inhibition [1, 3]: moderate effectiveness |
| Cc1ncsc1-c1ccc(CNC(=O)[C@@H]2C[C@@H](O)CN2C(=O)[C@@H](NC(=O)CCC(=O)N2CCN(CC[C@H](NC(=O)C3(N)CCN(c4ncnc5[nH]ccc45)CC3)c3ccc(Cl)cc3)CC2)C(C)(C)C)cc1 [Compound 12, 4-Amino-N-((S)-1-(4-chlorophenyl)-3-(4-(4-(((S)-1-((2S,4R)-4-hydroxy-2-((4-(4-methylthiazol-5-yl)benzyl)carbamoyl)pyrrolidin-1-yl)-3,3-dimethyl-1-oxobutan-2-yl)amino)-4-oxobutanoyl)-piperazin-1-yl)propyl)-1-(7H-pyrrolo[2,3-d]pyrimidin-4-yl)-piperidine-4-carboxamide] | inactive at reducing the T-AKT protein level | – |
| Cc1ncsc1-c1ccc(CNC(=O)[C@@H]2C[C@@H](O)CN2C(=O)[C@@H](NC(=O)CCOCCC(=O)N2CCN(CC[C@H](NC(=O)C3(N)CCN(c4ncnc5[nH]ccc45)CC3)c3ccc(Cl)cc3)CC2)C(C)(C)C)cc1 [Compound 4, 4-Amino-N-((S)-1-(4-chlorophenyl)-3-(4-(3-(3-(((S)-1-((2S,4R)-4-hydroxy-2-((4-(4-methylthiazol-5-yl)benzyl)carbamoyl)pyrrolidin-1-yl)-3,3-dimethyl-1-oxobutan-2-yl)amino)-3-oxopropoxy)-propanoyl)piperazin-1-yl)propyl)-1-(7H-pyrrolo[2,3-d]pyrimidin-4-yl)piperidine-4-carboxamide] | decreased the AKT degradation effectiveness | – |
| NC1(C(=O)N[C@@H](CCN2CCN(C(=O)CCOCCNc3cccc4c3C(=O)N(C3CCC(=O)NC3=O)C4=O)CC2)c2ccc(Cl)cc2)CCN(c2ncnc3[nH]ccc23)CC1 (stereo partly drawn) [Compound 31, 4-Amino-N-((1S)-1-(4-chlorophenyl)-3-(4-(3-(2-((2-(2,6-dioxopiperidin-3-yl)-1,3-dioxoisoindolin-4-yl)amino)ethoxy)propanoyl)-piperazin-1-yl)propyl)-1-(7H-pyrrolo[2,3-d]pyrimidin-4-yl)-piperidine-4-carboxamide] | – | AKT degradation (total AKT (T-AKT); BT474 cells, 10 μM): only moderate AKT degradation |
| Cc1ncsc1-c1ccc(CNC(=O)[C@@H]2C[C@@H](O)CN2C(=O)[C@@H](N)C(C)(C)C)cc1 [VHL-1, (2S,4R)-1-[(S)-2-amino-3,3-dimethylbutanoyl]-4-hydroxy-N-[4-(4-methylthiazol-5-yl)benzyl]pyrrolidine-2-carboxamide, reference compound] | – | T-AKT protein level (total AKT (T-AKT); BT474 cells, 1 μM): no effect; downstream signaling (PRAS40 and S6 phosphorylation) ([1]; BT474 cells, 1 μM, western blot): no effect |
| Cc1ncsc1-c1ccc(CNC(=O)[C@@H]2C[C@@H](O)CN2C(=O)[C@@H](NC(=O)CCCCCCCCCC(=O)N2CCN(CC[C@H](NC(=O)C3(N)CCN(c4ncnc5[nH]ccc45)CC3)c3ccc(Cl)cc3)CC2)C(C)(C)C)cc1 [Compound 19, 4-Amino-N-((S)-1-(4-chlorophenyl)-3-(4-(11-(((S)-1-((2S,4R)-4-hydroxy-2-((4-(4-methylthiazol-5-yl)benzyl)carbamoyl)pyrrolidin-1-yl)-3,3-dimethyl-1-oxobutan-2-yl)amino)-11-oxoundecanoyl)-piperazin-1-yl)propyl)-1-(7H-pyrrolo[2,3-d]pyrimidin-4-yl)-piperidine-4-carboxamide] | most profound AKT degradation | downstream signaling inhibition [1, 3]: most profound AKT degradation and downstream signaling inhibition |
| NC1(C(=O)N[C@@H](CCN2CCN(C(=O)CCCCCCCNc3cccc4c3C(=O)N(C3CCC(=O)NC3=O)C4=O)CC2)c2ccc(Cl)cc2)CCN(c2ncnc3[nH]ccc23)CC1 (stereo partly drawn) [Compound 30, 4-Amino-N-((1S)-1-(4-chlorophenyl)-3-(4-(8-((2-(2,6-dioxopiperidin-3-yl)-1,3-dioxoisoindolin-4-yl)amino)octanoyl)piperazin-1-yl)-propyl)-1-(7H-pyrrolo[2,3-d]pyrimidin-4-yl)piperidine-4-carboxamide] | negligible AKT degradation | – |
| NC1(C(=O)N[C@@H](CCN2CCN(C(=O)CCCCNc3cccc4c3C(=O)N(C3CCC(=O)NC3=O)C4=O)CC2)c2ccc(Cl)cc2)CCN(c2ncnc3[nH]ccc23)CC1 (stereo partly drawn) [Compound 27, 4-Amino-N-((1S)-1-(4-chlorophenyl)-3-(4-(5-((2-(2,6-dioxopiperidin-3-yl)-1,3-dioxoisoindolin-4-yl)amino)pentanoyl)piperazin-1-yl)propyl)-1-(7H-pyrrolo[2,3-d]pyrimidin-4-yl)piperidine-4-carboxamide] | moderate effectiveness | downstream signaling inhibition [1, 3]: moderate effectiveness |
| NC1(C(=O)N[C@@H](CCN2CCN(C(=O)CCNc3cccc4c3C(=O)N(C3CCC(=O)NC3=O)C4=O)CC2)c2ccc(Cl)cc2)CCN(c2ncnc3[nH]ccc23)CC1 (stereo partly drawn) [Compound 25, 4-Amino-N-((1S)-1-(4-chlorophenyl)-3-(4-(3-((2-(2,6-dioxopiperidin-3-yl)-1,3-dioxoisoindolin-4-yl)amino)propanoyl)piperazin-1-yl)propyl)-1-(7H-pyrrolo[2,3-d]pyrimidin-4-yl)piperidine-4-carboxamide] | negligible AKT degradation | – |
| Cc1ncsc1-c1ccc(CNC(=O)[C@@H]2C[C@@H](O)CN2C(=O)[C@@H](NC(=O)CCCCCC(=O)N2CCN(CC[C@H](NC(=O)C3(N)CCN(c4ncnc5[nH]ccc45)CC3)c3ccc(Cl)cc3)CC2)C(C)(C)C)cc1 [Compound 15, 4-Amino-N-((S)-1-(4-chlorophenyl)-3-(4-(7-(((S)-1-((2S,4R)-4-hydroxy-2-((4-(4-methylthiazol-5-yl)benzyl)carbamoyl)pyrrolidin-1-yl)-3,3-dimethyl-1-oxobutan-2-yl)amino)-7-oxoheptanoyl)-piperazin-1-yl)propyl)-1-(7H-pyrrolo[2,3-d]pyrimidin-4-yl)-piperidine-4-carboxamide] | – | AKT degradation (total AKT (T-AKT); BT474 cells, 5 μM): improved AKT degradation; downstream signaling inhibition [1, 2]: significant downstream signaling inhibition |
| NC1(C(=O)N[C@@H](CCN2CCN(C(=O)CCOCCOCCOCCOCCOCCNc3cccc4c3CN(C3CCC(=O)NC3=O)C4=O)CC2)c2ccc(Cl)cc2)CCN(c2ncnc3[nH]ccc23)CC1 (stereo partly drawn) [Compound 39, 4-Amino-N-((1S)-1-(4-chlorophenyl)-3-(4-(1-((2-(2,6-dioxopiperidin-3-yl)-1-oxoisoindolin-4-yl)amino)-3,6,9,12,15-pentaoxaoctadecan-18-oyl)piperazin-1-yl)propyl)-1-(7H-pyrrolo[2,3-d]pyrimidin-4-yl)piperidine-4-carboxamide] | significantly decreased effectiveness in AKT degradation | – |
